# Measured values published in patent US20240400555A1 (Initial Therapeutics, Inc., priority 2023, published 2024).
# Tested on: MV-4-11 cells
# Assay: Cell Viability Assay in MV-4-11 Cells
# Assay type: cell-based
# Conditions: Homo sapiens, MV4-11, 72 h
# Summary of the method: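 MV-4-11 cells at 7,000/well in IMDM with 10% FBS, exposed to compound for 72 h. Viability by CellTiter-Glo luminescence, normalized to DMSO as 100%, fitted with a four-parameter curve.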
row,SMILES,IC50 [nM]
1,"Cn1nnc(-c2ccc(C(=O)N(c3nccc4cc(-c5cn[nH]c5)ccc34)[C@@H]3CCCNC3)cc2)n1 [Example 395, (R)—N-(6-(1H-pyrazol-4-yl)isoquinolin-1-yl)-4-(2-methyl-2H-tetrazol-5-yl)-N-(piperidin-3-yl)benzamide]",230
2,"Cc1csc2ccnc(N(C(=O)c3ccc(-c4nnn5c4COCC5)cc3F)[C@@H]3CCCNC3)c12 [Example 635, (R)-4-(6,7-dihydro-4H-[1,2,3]triazolo[5,1-c][1,4]oxazin-3-yl)-2-fluoro-N-(3-methylthieno[3,2-c]pyridin-4-yl)-N-(piperidin-3-yl)benzamide]",100

# Same assay, conditions: Homo sapiens, MV4-11, 72 h, MV-4-11 cells, 72 h, Cell-Titer Glo; read-out: IC50
row,IC50 [nM],SMILES
1,200,"CC(O)c1cccc(-c2cc3c(N(C(=O)c4ccc(-n5nnc6cccnc65)cc4F)[C@@H]4CCCNC4)nccc3s2)c1 (stereo partly drawn) [Example 601, 4-(3H-[1,2,3]triazolo[4,5-b]pyridin-3-yl)-2-fluoro-N-(2-(3-(1-hydroxyethyl)phenyl)thieno[3,2-c]pyridin-4-yl)-N—((R)-piperidin-3-yl)benzamide]"
2,310,"CC(C)(O)C#Cc1ccc2c(N(C(=O)c3ccc(-n4nnc5cccnc54)cc3F)[C@@H]3CCCNC3)nccc2c1 [Example 586, (R)-4-(3H-[1,2,3]triazolo[4,5-b]pyridin-3-yl)-2-fluoro-N-(6-(3-hydroxy-3-methylbut-1-yn-1-yl)isoquinolin-1-yl)-N-(piperidin-3-yl)benzamide]"
3,430,"Cn1cc(-c2ccc(C(=O)N(c3nccc4cc(-c5ccc(F)cc5)ccc34)[C@@H]3CCCNC3)c(F)c2)nn1 [Example 580, (R)-2-fluoro-N-(6-(4-fluorophenyl)isoquinolin-1-yl)-4-(1-methyl-1H-1,2,3-triazol-4-yl)-N-(piperidin-3-yl)benzamide]"
4,520,"Cn1cc(-c2ccc(C(=O)N(c3nccc4sc(-c5cccc(N)c5)cc34)[C@@H]3CCCNC3)c(F)c2)nn1 [Example 509, N-[2-(3-aminophenyl)thieno[3,2-c]pyridin-4-yl]-2-fluoro-4-(1-methyltriazol-4-yl)-N-[(3R)-3-piperidyl]benzamidezamide]"
5,7800,"Cn1cc(-c2ccc(C(=O)N(c3nccc4cc(-c5nnn[nH]5)ccc34)[C@@H]3CCCNC3)c(F)c2)nn1 [Example 405, (R)—N-(6-(1H-tetrazol-5-yl)isoquinolin-1-yl)-2-fluoro-4-(1-methyl-1H-1,2,3-triazol-4-yl)-N-(piperidin-3-yl)benzamide]"
6,330,"N#Cc1cc(-c2cc3c(N(C(=O)c4ccc(-n5nnc6cccnc65)cc4F)[C@@H]4CCCNC4)nccc3s2)ccn1 [Example 386, N-[2-(2-cyano-4-pyridyl)thieno[3,2-c]pyridin-4-yl]-2-fluoro-N-[(3R)-3-piperidyl]-4-(triazolo[4,5-b]pyridin-3-yl)benzamide]"
7,1200,"Cn1cc(-c2ccc(C(=O)N(c3nccc4sc(-c5ccc(C(N)=O)cc5)cc34)[C@@H]3CCCNC3)c(F)c2)nn1 [Example 840, N-[2-(4-carbamoylphenyl)thieno[3,2-c]pyridin-4-yl]-2-fluoro-4-(1-methyltriazol-4-yl)-N-[(3R)-3-piperidyl] benzamide]"
8,1800,"C=CC(=O)Nc1cccc(-c2cc3c(N(C(=O)c4ccc(-c5cn(C)nn5)cc4F)[C@@H]4CCCNC4)nccc3s2)c1 [Example 532, 2-fluoro-4-(1-methyltriazol-4-yl)-N-[(3R)-3-piperidyl]-N-[2-[3-(prop-2-enoylamino)phenyl]thieno[3,2-c]pyridin-4-yl]benzamide]"
9,470,Cn1cc(-c2ccc(C(=O)N(c3nccc4sc(-c5ccc(C(C)(C)C(N)=O)cc5)cc34)[C@@H]3CCCNC3)c(F)c2)nn1 [Example 595]
10,340,"Cn1cc(-c2ccc(C(=O)N(c3nccc4cc(-c5ccccn5)ccc34)[C@@H]3CCCNC3)c(F)c2)nn1 [Example 581, (R)-2-fluoro-4-(1-methyl-1H-1,2,3-triazol-4-yl)-N-(piperidin-3-yl)-N-(6-(pyridin-2-yl)isoquinolin-1-yl)benzamide]"

# The next lines start with the compound.
row,SMILES,IC50 [nM]
1,"CN(C)C/C=C/C(=O)Nc1cccc(C2CCN(C(=O)N(c3nccc4ccn(C)c34)[C@@H]3CCCNC3)CC2)c1 [Example 304, (R,E)-4-(3-(4-(dimethylamino)but-2-enamido)phenyl)-N-(1-methyl-1H-pyrrolo[2,3-c]pyridin-7-yl)-N-(piperidin-3-yl)piperidine-1-carboxamide]",37
2,"CCn1cc(-c2ccc(C(=O)N(c3nccc4cc(Cl)cc(C)c34)[C@@H]3CCCNC3)c(F)c2)nn1 [Example 711, N-(6-chloro-8-methyl-1-isoquinolyl)-4-(1-ethyltriazol-4-yl)-2-fluoro-N-[(3R)-3-piperidyl] benzamide]",74
3,"Cn1cc(-c2ccc(C(=O)N(c3nccc4cccc(CCc5cccnc5)c34)[C@@H]3CCCNC3)cc2)nn1 [Example 403, 4-(1-methyltriazol-4-yl)-N-[(3R)-3-piperidyl]-N-[8-[2-(3-pyridyl)ethyl]-1-isoquinolyl]benzamide]",2100
4,"Cc1cccc2ccnc(N(C(=O)c3ccc(-c4cn(C)nn4)cc3Cl)[C@@H]3CCCNC3)c12 [Example 822, (R)-2-chloro-4-(1-methyl-1H-1,2,3-triazol-4-yl)-N-(8-methylisoquinolin-1-yl)-N-(piperidin-3-yl)benzamide]",390
5,"Cc1cccc2ccnc(N(C(=O)c3ccc(-c4cn(C)nn4)cc3F)[C@H]3CNCC[C@@H]3C)c12 [Example 441, 2-fluoro-N-(8-methyl-1-isoquinolyl)-N-[(3R, 4S)-4-methyl-3-piperidyl]-4-(1-methyltriazol-4-yl) benzamide]",120
6,"Cc1nnc(-c2ccc(C(=O)N(c3nccc4cccc(C)c34)[C@@H]3CCCNC3)cc2)s1 [Example 792, (R)-4-(5-methyl-1,3,4-thiadiazol-2-yl)-N-(8-methylisoquinolin-1-yl)-N-(piperidin-3-yl) benzamide]",160
7,"Cc1cccc2ccnc(N(C(=O)c3ccc(Nc4nccc(CN5CCNCC5)n4)cc3F)[C@@H]3CCCNC3)c12 [Example 686, (R)-2-fluoro-N-(8-methylisoquinolin-1-yl)-4-((4-(piperazin-1-ylmethyl)pyrimidin-2-yl)amino)-N-(piperidin-3-yl)benzamide]",460
8,"COCCn1cc(-c2ccc(C(=O)N(c3nccc4scc(C)c34)[C@@H]3CCCNC3)cn2)nn1 [Example 638, (R)-6-(1-(2-methoxyethyl)-1H-1,2,3-triazol-4-yl)-N-(3-methylthieno[3,2-c]pyridin-4-yl)-N-(piperidin-3-yl)nicotinamide]",47
9,"Cc1cccc2ccnc(N(C(=O)c3cccc(C#CCCC(=O)O)c3)[C@@H]3CCCNC3)c12 [Example 590, (R)-5-(3-((8-methylisoquinolin-1-yl)(piperidin-3-yl)carbamoyl)phenyl)pent-4-ynoic acid]",> 10000
10,"Cn1cc(-c2ccc(C(=O)N(c3nccc4c(Cl)csc34)[C@@H]3CCCNC3)c(F)c2)nn1 [Example 678, N-(3-chlorothieno[2,3-c]705yridine-7-yl)-2-fluoro-4-(1-methyltriazol-4-yl)-N-[(3R)-3-piperidyl]benzamide]",350
11,"COC(=O)[C@@H]1COCCN1c1ccnc(Nc2ccc(C(=O)N(c3nccc4cccc(C)c34)[C@@H]3CCCNC3)c(F)c2)n1 [Example 945, methyl(S)-4-(2-((3-fluoro-4-((8-methylisoquinolin-1-yl)((R)-piperidin-3-yl)carbamoyl)phenyl)amino)pyrimidin-4-yl)morpholine-3-carboxylate]",47
12,"CCc1nnc(-c2ccc(C(=O)N(c3nccc4c(F)ccc(C)c34)[C@@H]3CCCNC3)c(F)c2)s1 [Example 657, (R)-4-(5-ethyl-1,3,4-thiadiazol-2-yl)-2-fluoro-N-(5-fluoro-8-methylisoquinolin-1-yl)-N-(piperidin-3-yl)benzamide]",170
13,"Cc1nnc(-c2ccc(C(=O)N(c3nccc4cccc(C)c34)[C@@H]3CCCNC3)c(C)c2)s1 [Example 628, (R)-2-methyl-4-(5-methyl-1,3,4-thiadiazol-2-yl)-N-(8-methylisoquinolin-1-yl)-N-(piperidin-3-yl)benzamide]",630
14,"Cc1cccc2ccnc(N(C(=O)N3CCc4[nH]nc(-c5ccccc5)c4C3)[C@@H]3CCCNC3)c12 [Example 343, (R)—N-(8-methylisoquinolin-1-yl)-3-phenyl-N-(piperidin-3-yl)-1,4,6,7-tetrahydro-5H-pyrazolo[4,3-c]pyridine-5-carboxamide]",1400
15,"Cc1cc(Cl)cc2ccnc(N(C(=O)c3ccc(-c4cn(C)nn4)cc3Cl)[C@@H]3CCCNC3)c12 [Example 816, (R)-2-chloro-N-(6-chloro-8-methylisoquinolin-1-yl)-4-(1-methyl-1H-1,2,3-triazol-4-yl)-N-(piperidin-3-yl)benzamide]",140
16,"Cn1cc(-c2ccc(C(=O)N(c3nccc4sc(C#N)cc34)[C@@H]3CCCNC3)c(F)c2)nn1 [Example 477, N-(2-cyanothieno [3,2-c]pyridin-4-yl)-2-fluoro-4-(1-methyltriazol-4-yl)-N-[(3R)-3-piperidyl] benzamide]",2800
17,"Cc1cccc2ccnc(N(C(=O)c3cccc(C#CCCCO)c3)[C@@H]3CCCNC3)c12 [Example 513, (R)-3-(5-hydroxypent-1-yn-1-yl)-N-(8-methylisoquinolin-1-yl)-N-(piperidin-3-yl) benzamide]",540
18,"COc1nnc(-c2ccc(C(=O)N(c3nccc4cc(F)cc(C)c34)[C@@H]3CCCNC3)c(F)c2)s1 [Example 710, 2-fluoro-N-(6-fluoro-8-methyl-1-isoquinolyl)-4-(5-methoxy-1,3,4-thiadiazol-2-yl)-N-[(3R)-3-piperidyl]benzamide]",2300
19,"COc1ccc2c(N(C(=O)c3ccc(-c4cn(C)nn4)cc3)[C@@H]3CCCNC3)nccc2c1Cl [Example 869, N-(5-chloro-6-methoxy-1-isoquinolyl)-4-(1-methyltriazol-4-yl)-N-[(3R)-3-piperidyl]benzamide]",1400
